{"source": "patent US7528175B2", "about": "“Method of treating airway diseases with beta-adrenergic inverse agonists” (Inverseon, Inc., priority 2005, dated 2009)", "key": {"asthmatic mice [1]": {"system": "asthmatic mice", "assay": "Airway resistance (Raw) response to methacholine in murine model of asthma (forced oscillation)", "format": "in vivo, Balb/cJ mice", "procedure": "Balb/cJ mice aged 6 weeks (Jackson Animal Laboratory, Bar Harbor, Me.) were housed under specific pathogen-free conditions and fed a chicken ovalbumin-free diet. The Animal Research Ethics Boards of both the University of Houston and the Baylor College of Medicine approved all experiments reported here. […] Mice were sensitized with subcutaneous injection of 25 μg of ovalbumin adsorbed to aluminum hydroxide on protocol days 2, 9, and 16. Subsequently, mice were given 50 μL of saline solution containing 25 μg of ovalbumin intranasally, on a daily basis, from protocol days 23 through 27. A group of ovalbumin-sensitized saline-challenged mice serves as controls for systemic sensitization and respiratory challenges with ovalbumin. Prior to intranasal administrations, mice were sedated with halothane vapor.\nTo examine the effects of duration of β-adrenergic ligand therapy on the phenotype of the murine model of asthma, the experimental drugs were administered either acutely or chronically to different groups of asthmatic mice.\nAsthmatic mice on acute therapy were given a single intravenous bolus infusion of either β-adrenergic drug or normal saline on protocol day 28, 15 minutes before airway responsiveness to methacholine was determined. […] […] […] These concentrations were chosen based on those producing therapeutic effects in mice in previously published studies. The non-asthmatic mice were fed normal chow.\nOn protocol day 28, mice were anesthetized, tracheotomized, and connected to a computer-controlled small animal ventilator (Flexivent, Scientific Respiratory Equipment, Inc., Montreal, Canada). Airway resistance (Raw) was measured using the forced oscillation technique. The cellular composition of bronchoalveolar lavage fluid (BALF) was also determined.\nTo induce airway constriction, a solution containing 150 μg/mL of acetyl-α-methylcholine chloride (methacholine) (Sigma Chemical, St. Louis, Mo.) was infused intravenously at constant rates using a syringe infusion pump (Raze Scientific Instruments, Stanford, Conn.). […] Each methacholine dose was administered for 3 to 5 minutes, during which data were sampled at 1-minute intervals and then averaged.\nThe complex input impedance of the respiratory system was computed and the value of the real part of respiratory system impedance at 19.75 Hz was taken to reflect the magnitude of airway resistance (Raw). To examine the degree of airway responsiveness of each animal, the values for Raw as a function of methacholine doses were plotted. The largest value for Raw achieved in response to methacholine stimulation was referred to as Rawpeak. For mice that achieved a plateau in the methacholine dose-Raw response curve, the ED50 was calculated by linear interpolation using the GraphPad Prism4 (GraphPad Software, Inc.). […] The Bonferroni test was used to examine the statistical differences between experimental groups. The effects of acute drug treatments on baseline respiratory system mechanics were assessed using a two-tailed paired t-test. A value of P<0.05 was considered significant.\nFor these experiments, salbutamol was used for chronic administration at 0.5 mg/kg/day with a minipump and for acute administration at 0.15 mg/kg by i.v. bolus 15 minutes prior to challenge. Alprenolol was used at a high dose of 7200 ppm in chow or at a low dose of 720 ppm in chow. Carvedilol was used at a high dose of 2400 ppm in chow or at a low dose of 720 ppm in chow."}, "β2-adrenergic receptor [2]": {"target": "β2-adrenergic receptor (Mus musculus, UniProt P18762)", "sequence (P18762 whole entry)": "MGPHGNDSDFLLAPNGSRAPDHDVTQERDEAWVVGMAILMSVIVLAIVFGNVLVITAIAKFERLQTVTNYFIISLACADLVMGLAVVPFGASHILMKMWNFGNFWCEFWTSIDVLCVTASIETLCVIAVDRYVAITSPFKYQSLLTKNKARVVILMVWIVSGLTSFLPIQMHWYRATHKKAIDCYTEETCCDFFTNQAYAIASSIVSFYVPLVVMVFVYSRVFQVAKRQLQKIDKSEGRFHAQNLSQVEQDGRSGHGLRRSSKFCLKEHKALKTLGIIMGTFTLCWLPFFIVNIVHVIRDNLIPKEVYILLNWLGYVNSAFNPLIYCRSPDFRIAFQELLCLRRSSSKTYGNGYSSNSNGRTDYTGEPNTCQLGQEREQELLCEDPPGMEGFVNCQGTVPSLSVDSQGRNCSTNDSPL", "format": "binding, mice", "procedure": "(§1) β2-adrenergic receptor numbers were measured in asthmatic mice as follows. […] Mice were sacrificed and lung membranes were isolated as follows. Frozen lung tissue was homogenized in an ice-cold buffer containing 0.32 M sucrose and 25 mM Tris (pH 7.4) using a polytron (Pro 200, Pro Scientific, Inc.). The homogenate was centrifuged at 1000×g for 10 min at 4° C. The resulting supernatant was centrifuged at 40,000×g for 20 min at 4° C. The pellet was suspended in an ice-cold 25 mM Tris-HCl buffer (pH 7.4) and centrifuged at 40,000×g for 20 min at 4° C. The final pellet was suspended in 200 μL of 25 mM Tris-HCl (pH 7.4); membrane protein concentration was determined by BCA protein assay kit. […] The incubation was done at 37° C. for 2 h and terminated by rapid vacuum filtration through glass fiber filters. The filters were washed three times with 250 μL of cold wash buffer (25 mM Tris-HCl, pH 7.4) and the radioactivity determined in a counter. […] Receptor densities are expressed as femtomoles of sites per milligram of protein. Bmax is determined by nonlinear regression of the saturation binding curves."}, "β2-adrenergic receptor [3]": {"system": "β2-adrenergic receptor", "format": "binding, mice", "settings": "2 days of administration", "procedure": "as §1"}, "β2-adrenergic receptor [4]": {"system": "β2-adrenergic receptor", "assay": "Immunohistochemistry of β2-adrenergic receptor levels in lungs", "format": "in vivo, mice", "settings": "chronic treatment vs untreated animals", "experimental": "The mice were sacrificed and the lungs excised. […] Lungs were embedded in OCT and 12-μm sections cut with a Tissue-Tek II cryostat. […] After 3 washes in PBS, the slides were blocked with 5% milk in PBS for 1 h, and then incubated overnight with anti-β2-adrenergic receptor antibody (1:200, Santa Cruz Biotechnology) in blocking solution. Slides were washed in PBS and incubated with secondary antibody (1:200, Cy3 goat anti-rabbit, 16 h at 4° C.). […] After washing with PBS, coverslips were mounted and viewed by epifluorescent microscopy."}, "[5]": {"system": "ovalbumin-sensitized, allergen-challenged mice", "assay": "Acute nadolol and aminophylline, methacholine-induced bronchoconstriction", "format": "in vivo", "settings": "nadolol 0.72 mg/kg i.p. 15 minutes prior to methacholine", "experimental": "At time point 1 (time=−10 min) baseline airway resistance of the mice was determined."}, "interleukin 10 (IL-10)": {"system": "interleukin 10 (IL-10)", "assay": "IL-10 levels in BALF", "format": "in vivo, mice", "procedure": "Bronchial alveolar lavage fluid was collected from treated animals and total immune cell number was determined and the total number of eosinophils was also determined. Additionally, the interleukin 10 (IL-10) levels were determined in the mice."}, "adults with mild asthma [6]": {"system": "adults with mild asthma", "text": "(§2) Study Design: The study is an open-label Phase IIa, proof of principle, 11-week, dose escalation study in mild asthma. Up to twelve subjects with mild asthma, not taking inhaled corticosteroids or other controller medications are to be recruited from a single clinical research center. […] Combivent rescue medication was provided to subjects during the run-in period to replace their own rescue medication which typically is Albuterol (salbutamol a beta 2 partial agonist).\n(§3) The subjects are maintained at their maximum tolerated dose for a minimum of 4 weeks.\n(§4) All the following criteria had to be met for dose escalation otherwise the dose was kept at maintenance level (same dose), reduced to previous lower tolerated dose or the subject was terminated from the study.\n(§5) Data collected at baseline and during study visits include lung function (spirometry—FEV1 and daily peak flow rates —PEFR), asthma symptoms via dairy cards), heart rate and blood pressure. In addition, airway hyper-responsiveness (methacholine challenge test—PC20) and Asthma Control Questionaire (Juniper ACQ) will be performed. Blood is collected to monitor beta adrenergic receptor levels in lymphocytes and baseline laboratory evaluation."}, "adults with mild asthma [7]": {"system": "adults with mild asthma", "settings": "human, in vivo", "text": "as §2, §3, §4, §5"}, "asthmatic mice [8]": {"system": "asthmatic mice", "settings": "Callaerts-Vegh et al. 2004, cited from earlier work"}, "[9]": {"settings": "cited from earlier work"}, "adults with mild asthma [10]": {"system": "adults with mild asthma", "assay": "Phase IIa clinical trial of chronic oral nadolol, tolerability and cardiovascular function", "settings": "for Heart rate at 4 hrs after administration of dose: subject 003, 80 mg", "text": "as §2, §3, §4, §5"}}, "note": "Several values for one entry are separate records, joined by “and”; a condition that tells them apart may be missing. Equal values may be shown once. Entries after “also recorded” stand apart in the source; their conditions may differ. Read-outs that look alike come from different tables or passages of the source.", "data": [{"smiles": "CC(C)(C)NCC(O)COc1cccc2c1CC(O)C(O)C2", "note": "(centres unmarked) [nadolol]", "values": [{"measurement": "airway resistance (Raw)", "setting": "asthmatic mice [1]; 1 ppm in chow", "result": "identical to the untreated mice"}, {"measurement": "Decreased Raw", "setting": "asthmatic mice [1]; 15 minutes of administration", "result": "no"}, {"measurement": "Decreased Raw", "setting": "asthmatic mice [1]; 2 days of administration", "result": "yes"}, {"measurement": "Decreased Raw", "setting": "asthmatic mice [1]; 28 days of administration", "result": "yes"}, {"measurement": "airway function", "setting": "asthmatic mice [1]; acute, parenteral administration, asthmatic mice", "result": "significant reduction in airway function"}, {"measurement": "airway responsiveness to methacholine provocation (Raw)", "setting": "asthmatic mice [1]; asthmatic mice, acute: single intravenous bolus 15 minutes before methacholine", "result": "enhanced the airway responsiveness"}, {"measurement": "airway responsiveness to methacholine provocation (Raw)", "setting": "asthmatic mice [1]; asthmatic mice, chronic administration for 28 days", "result": "produced a decrease in airway responsiveness, which was more pronounced than that caused by carvedilol treatment"}, {"measurement": "protection from airway hyperresponsiveness", "setting": "asthmatic mice [1]; chronic administration, low and high doses in chow (FIGS. 8D-8G)", "result": "providing protection from airway hyperresponsiveness"}, {"measurement": "observed airway adverse effects", "setting": "asthmatic mice [1]; orally in the animal chow at 250 ppm", "result": "noticeably wheezing and airway distress"}, {"measurement": "Bmax", "setting": "β2-adrenergic receptor [2]; 15 Minutes drug treatment, lung membranes of asthmatic mice, mean±SEM", "result": "181.9 ± 48.28 femtomoles of sites per milligram of protein"}, {"measurement": "βmax", "setting": "β2-adrenergic receptor [2]; 28 Days drug treatment, lung membranes of asthmatic mice, mean±SEM", "result": "785.5 ± 154.8 femtomoles of sites per milligram of protein"}, {"measurement": "Increased β2AR density", "setting": "β2-adrenergic receptor [2]; 15 minutes of administration", "result": "no"}, {"measurement": "Increased β2AR density", "setting": "β2-adrenergic receptor [2]; 28 days of administration", "result": "showed an increase in receptor density at both 2 days and 28 days"}, {"measurement": "Increased β2AR density", "setting": "β2-adrenergic receptor [2]; 28 days of administration, listed as Nadolol", "result": "yes"}, {"measurement": "level of the β2-adrenergic receptor", "setting": "β2-adrenergic receptor [2]; chronic treatment, asthmatic mice", "result": "nearly eightfold increase"}, {"measurement": "Increased β2AR density", "setting": "β2-adrenergic receptor [3]", "result": "showed an increase in receptor density at both 2 days and 28 days"}, {"measurement": "Increased β2AR density", "setting": "β2-adrenergic receptor [3]; listed as Nadolol", "result": "yes"}, {"measurement": "labeling with anti-β2-adrenergic receptor antibodies in lungs", "setting": "β2-adrenergic receptor [4]", "result": "considerably more intense"}, {"measurement": "baseline airway resistance", "setting": "[5]", "result": "same baseline airway resistance as non-drug treated sensitized and allergen-challenged mice"}, {"measurement": "IL-10 levels in BALF", "setting": "interleukin 10 (IL-10); acute treatment, P<0.01 vs S/C", "result": "a reduction was observed"}, {"measurement": "IL-10 levels in BALF", "setting": "interleukin 10 (IL-10); chronic treatment, P<0.05 vs NS/NC, P<0.001 vs S/C", "result": "statistically significant increases"}, {"measurement": "ACQ Score Δ", "setting": "adults with mild asthma [6]; Asthma Control Questionnaire, absolute change from baseline, per subject", "result": "results were mixed"}, {"measurement": "PEFR % Change baseline", "setting": "adults with mild asthma [6]; average last 14 days of treatment vs last 14 days of run-in, per subject", "result": "essentially no effect"}, {"measurement": "subjects with reduction in airway twitchiness (increased PC20)", "setting": "adults with mild asthma [6]; chronic nadolol", "result": "4 of 5"}, {"measurement": "subjects with PC20 doubling doses within the 1.5 limit", "setting": "adults with mild asthma [6]; chronic nadolol, 5 subjects", "result": "Two subjects"}, {"measurement": "subjects with increases of doubling doses greater than 1.5", "setting": "adults with mild asthma [6]; chronic nadolol, 5 subjects", "result": 3, "unit": "subjects"}, {"measurement": "PC20 Doubling Dose", "setting": "adults with mild asthma [6]; methacholine PC20 change from baseline at the end of the trial, per subject", "result": "more pronounced effect on airway hyper-responsiveness"}, {"measurement": "Puffs/Day Mean Change per Day", "setting": "adults with mild asthma [6]; rescue medication use, absolute change from baseline, per subject", "result": "results were mixed"}, {"measurement": "serious adverse events due to study drug administration", "setting": "adults with mild asthma [7]", "result": "No serious adverse events"}, {"measurement": "tolerability of the first dose", "setting": "adults with mild asthma [7]", "result": "All subjects tolerated the first 10 mg dose"}, {"measurement": "airway hyperresponsiveness", "setting": "asthmatic mice [8]; administered acutely", "result": "worsens airway hyperresponsiveness"}, {"measurement": "airway hyperresponsiveness", "setting": "asthmatic mice [8]; administered chronically", "result": "prevents airway hyperresponsiveness"}, {"measurement": "time to maximum drug in the bloodstream", "setting": "[9]; immediate-release oral tablets once a day", "result": "about 3.5 hours"}, {"measurement": "half-life", "setting": "[9]; immediate-release oral tablets", "result": "about 16 hours"}, {"measurement": "Reason for Maximum Tolerated Dose: Blood Pressure", "setting": "adults with mild asthma [10]; per subject", "result": "110/68 mm Hg and 91/63 mm Hg"}, {"measurement": "Reason for Maximum Tolerated Dose: FEV1", "setting": "adults with mild asthma [10]; per subject", "result": "FEV1 78% predicted; also recorded: FEV1 at 68% predicted"}, {"measurement": "Reason for Maximum Tolerated Dose: Heart Rate", "setting": "adults with mild asthma [10]; per subject", "result": "Heart Rate 48 bpm"}, {"measurement": "Nadolol Max Tolerated Dose", "setting": "adults with mild asthma [10]; per subject (001-005), once daily oral", "result": "40 mg (2×) and 20 mg (2×) and 10 mg"}, {"measurement": "Heart Rate Visit 9", "setting": "adults with mild asthma [10]; per subject, on maximum tolerated dose", "result": "71 bpm and 70 bpm (2×) and 72 bpm and 53 bpm"}, {"measurement": "Heart rate at 4 hrs after administration of dose", "setting": "adults with mild asthma [10]; visit 5", "result": 42, "unit": "bpm"}, {"measurement": "Heart rate at 4 hrs after administration of dose", "setting": "adults with mild asthma [10]; visit 6", "result": 48, "unit": "bpm"}]}]}
